Assay results from patent US9023816B2, “Bioactive alkaloid compositions and their medical uses” (Asiros A/S, priority 2013, dated 2015).
Like-named read-outs stand apart in the source and are kept apart here.

Tests used:
[1] = target: T1, phosphodiesterase 4 (PDE4), PDE4A1A (Homo sapiens, UniProt P27815); assay: PDE4A1A Assay Kit, fluorescence polarization; assay type: biochemical
T1 construct: purchased BSP Bioscience 60340
Procedure: Inhibition of PDE4 blocks hydrolysis of cAMP, thereby increasing levels of cAMP. The PDE4A1A Assay Kit is designed for identification of PDE4A1A inhibitors using fluorescence polarization. The assay is based on the binding of fluorescent AMP generated by PDE4A1A to the binding agent.
The assay was performed according to the protocol of the PDE4A1A assay provided by BSP Bioscience [BSP Bioscience, Data sheet PDE4A1A Assay Kit, Catalog #60340].
(§1) A fluorescence plate reader (Appliskan, Thermo Scientific) was used to detect fluorescence emission signals according to the following parameters:
(§2) Selected alkaloids of the invention prepared in example 1 were tested in 5 times dilutions to establish the 50% inhibitory concentration (IC-50).

IkappaB kinase β (IKK-β) = target: T2, IkappaB kinase β (IKK-β) (Homo sapiens, UniProt O14920); assay: IKK-β inhibition, Z'-LYTE Kinase Assay Kit Ser/Thr 5 Peptide (FRET); assay type: biochemical
T2 construct: purchased Invitrogen
T2 sequence (O14920 1-756): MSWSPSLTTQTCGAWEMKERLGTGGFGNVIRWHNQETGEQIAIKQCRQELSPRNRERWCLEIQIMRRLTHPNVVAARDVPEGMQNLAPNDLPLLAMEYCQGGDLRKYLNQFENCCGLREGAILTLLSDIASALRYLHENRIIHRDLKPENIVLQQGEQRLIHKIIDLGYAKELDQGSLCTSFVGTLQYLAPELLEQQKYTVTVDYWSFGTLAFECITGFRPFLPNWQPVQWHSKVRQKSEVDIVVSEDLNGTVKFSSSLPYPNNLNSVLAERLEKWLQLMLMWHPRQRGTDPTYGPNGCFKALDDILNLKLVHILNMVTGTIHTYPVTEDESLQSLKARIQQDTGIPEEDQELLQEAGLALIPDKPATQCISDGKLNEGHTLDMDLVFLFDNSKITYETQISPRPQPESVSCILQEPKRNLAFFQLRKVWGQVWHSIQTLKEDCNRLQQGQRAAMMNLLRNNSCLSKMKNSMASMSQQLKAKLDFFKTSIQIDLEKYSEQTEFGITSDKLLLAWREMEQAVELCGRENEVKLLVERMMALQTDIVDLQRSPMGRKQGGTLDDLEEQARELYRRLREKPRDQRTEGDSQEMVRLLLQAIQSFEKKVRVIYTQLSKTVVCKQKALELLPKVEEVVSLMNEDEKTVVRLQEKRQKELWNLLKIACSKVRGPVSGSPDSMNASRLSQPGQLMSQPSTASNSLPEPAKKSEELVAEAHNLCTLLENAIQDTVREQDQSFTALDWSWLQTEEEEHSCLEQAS
Procedure: IKK-β phosphorylates the inhibitory IκB protein associated with NF-κB. Phosphorylation results in the dissociation of IκB from NF-κB, allowing NF-κB to migrate into the cell nucleus where it can activate the transcription of at least 150 genes. The Z9-LYTE™ Kinase Assay Kit—Ser/Thr 5 Peptide is designed to screen for potential IKK-β inhibitory effect using fluorescence resonance energy transfer (FRET) between coumarin and fluorescein for detection by a fluorometer.
The assay was performed according to Z9-LYTE™ KINASE ASSAY KIT—SER/THR 5 PEPTIDE protocol provided by Invitrogen [Invitrogen, Z′-LYTE™ Kinase Assay Kit—Ser/Thr 5 Peptide Protocol, O-062187-r1 US 0405]. Based on the IKK-β certificate of the kit, a kinase concentration of 500 ng/ml was chosen. Km for ATP 9.4 μM was chosen according to an optimization for the LanthaScreen™ kinase assay [http://tools.invitrogen.com/content/sfs/manuals/IKBKB_%28IKK_beta %29_LanthaScreen_Activity.pdf].
as §1, §2

[2] = target: T3, phosphodiesterase 5A (PDE5) (Homo sapiens, UniProt O76074); assay: PDE5A Assay Kit, fluorescence polarization; assay type: biochemical
T3 construct: purchased BSP Bioscience 60350
Procedure: Inhibition of PDE5 blocks hydrolysis of cGMP, thereby increasing levels of cGMP. The PDE5A Assay Kit is designed for identification of PDE5A inhibitors using fluorescence polarization. The assay is based on the binding of a fluorescent nucleotide monophosphate generated by PDE5A to the binding agent.
The assay was performed according to the protocol of the PDE5A assay provided by BSP Bioscience [BSP Bioscience, Data sheet PDE5A Assay Kit, Catalog #60350].
as §1, §2

[3] = test system: hyperlipidemic guinea pigs; assay: Hypocholesterolemic effect in hyperlipidemic guinea pigs induced by high fat diet; assay type: in vivo, guinea pig; conditions: 10 mg/kg oral once daily, 28 days
Procedure: Male Dunkin-Hartley guinea pigs weighing 300+/−30 g were acclimated one week before the in-life phase of the experiment. The study diet (Research Diets Inc, New Brunswick, N.J., USA) contained 15% corn oil and 0.25% cholesterol. A daily oral dose of 2000 mg/kg of RAP2 corresponding 9 μg/kg of Ribetril A and 82 μg/kg total Ribetrils as well as 632 μg/kg total Glucoindols was administered orally at a dosing volume of 10 mL/kg. A daily oral dose of 2000 mg/kg of RAP4 corresponding to 112 μg/kg of Ribetril A and 492 μg/kg total Ribetrils as well as 240 μg/kg total Glucoindols was administered orally at a dosing volume of 10 mL/kg. The positive control atorvastatin (10 mg/kg) and vehicle (0.5% methylcellulose) were each administered orally at a dosing volume of 10 mL/kg. […]
After fasting overnight, blood samples were obtained from the retro-orbital sinus of each animal 5 min before initial test substance and/or vehicle administration (pre-treatment) and 24 hours after dosing on days 14 and 28 (post-treatment). The serum total cholesterol (TC), low density lipoprotein cholesterol (LDL-C), high density lipoprotein cholesterol (HDL-C) and triglycerides (TG) were determined by an enzymatic method (Wako total cholesterol, LDL-C, HDL-C & TG diagnostic kit and Toshiba Automatic Analyzer Model TAB-120FR).

[4] = test system: BKS Cg-Lepr db/Lepr db mice; assay: Hypoglycemic effect in BKS Cg-Lepr db/Lepr db mice (NIDDM model); assay type: in vivo, mouse; conditions: 300 mg/kg oral daily, day 14 post dosing
Procedure: Male non-insulin dependent diabetic mellitus (NIDDM) mice (BKS Cg-Lepr db/Lepr db) weighing 50+/−5 g were used at age of 12-13 weeks. A daily oral dose of 2000 mg/kg of RAP4 corresponding to corresponding to 112 μg/kg of Ribetril A and 492 μg/kg total Ribetrils as well as 240 μg/kg total Glucoindols was administered orally at a dosing volume of 10 mL/kg to 12 animals for a total of 14 consecutive days. The positive control of metformin (300 mg/kg) and vehicle (2% Tween 80) were each administered orally at a dosing volume of 10 mL/kg to groups of 6 animals once daily for a total of 14 consecutive days. Serum glucose levels were measured by means of an automated analyzer (TBA-120FR, Toshiba) and serum insulin by ELISA at zero min (pre-treatment) on Day 1, and at 90 min after the daily dosing (post-treatment) on Day 7 and Day 14.

[5] = read-out: Inhibitory effect on PDE4 IC-50
[6] = read-out: Inhibitory effect on IKK-β IC-50
[7] = read-out: Inhibitory effect on PDE5 IC-50

T1 sequence (P27815 1-647 isoform P27815-4): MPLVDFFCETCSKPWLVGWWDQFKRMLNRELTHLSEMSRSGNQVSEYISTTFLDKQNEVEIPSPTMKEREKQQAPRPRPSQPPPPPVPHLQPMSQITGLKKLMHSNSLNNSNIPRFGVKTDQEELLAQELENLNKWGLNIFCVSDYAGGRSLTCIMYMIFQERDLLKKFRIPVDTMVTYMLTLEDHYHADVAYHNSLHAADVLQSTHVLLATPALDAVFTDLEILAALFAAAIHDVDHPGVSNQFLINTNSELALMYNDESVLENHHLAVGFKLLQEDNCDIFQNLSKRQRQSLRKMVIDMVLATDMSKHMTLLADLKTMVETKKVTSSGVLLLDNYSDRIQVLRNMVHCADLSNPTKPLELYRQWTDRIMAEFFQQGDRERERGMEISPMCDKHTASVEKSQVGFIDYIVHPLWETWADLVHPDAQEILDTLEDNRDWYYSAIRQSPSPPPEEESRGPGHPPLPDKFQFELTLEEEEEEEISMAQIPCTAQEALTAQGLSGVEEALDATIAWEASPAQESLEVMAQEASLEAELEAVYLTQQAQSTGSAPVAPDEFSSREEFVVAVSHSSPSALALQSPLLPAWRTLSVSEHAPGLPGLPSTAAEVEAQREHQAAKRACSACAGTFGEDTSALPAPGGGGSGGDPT

| Compound | IC50 [1, 5] [µM] | IC50 (IkappaB kinase β (IKK-β); [6]) [µM] | IC50 [2, 7] [µM] | also measured |
| --- | --- | --- | --- | --- |
| O=C(O)Cc1cn([C@@H]2O[C@H](CO)[C@@H](O)[C@H](O)[C@H]2O)c2ccccc12 [Glucoindol A, 2-(1-((2R,3R,4S,5S,6R)-3,4,5-trihydroxy-6-(hydroxymethyl)tetrahydro-2H-pyran-2-yl)-1H-indol-3-yl)acetic acid] | 86.1 | – | – | – |
| COC(=O)Cc1cn([C@@H]2O[C@H](CO)[C@@H](O)[C@H](O)[C@H]2O)c2ccccc12 [Glucoindol B, methyl 2-(1-((2R,3R,4S,5S,6R)-3,4,5-trihydroxy-6-(hydroxymethyl)tetrahydro-2H-pyran-2-yl)-1H-indol-3-yl)acetate] | 45.6 | – | – | – |
| N#C/C(=C\CO[C@@H]1O[C@H](CO)[C@@H](O)[C@H](O)[C@H]1O)COC(=O)/C=C/c1ccc(O)c(O)c1 [Ribetril A, (E)-(E)-2-cyano-4-(((2R,3R,4S,5S,6R)-3,4,5-trihydroxy-6-(hydroxymethyl)tetrahydro-2H-pyran-2-yl)oxy)but-2-en-1-yl 3-(3,4-dihydroxyphenyl)acrylate] | 2.95 | 0.13 | 2.1 | times lower IC-50 as compared to Ribetril B (IKK-β) (IkappaB kinase β (IKK-β); vs Ribetril B): 48 times; times lower IC-50 as compared to Ribetril C (IKK-β) (IkappaB kinase β (IKK-β); vs Ribetril C): 118 times; times lower IC-50 as compared to Ribetril B (PDE5) ([2]; vs Ribetril B): 3 times; times lower IC-50 as compared to Ribetril C (PDE5) ([2]; vs Ribetril C): 8 times; times lower IC-50 as compared to Ribetril B (PDE4) ([1]; vs Ribetril B): 5 times; times lower IC-50 as compared to Ribetril C (PDE4) ([1]; vs Ribetril C): 20 times |
| COc1cc(/C=C/C(=O)OC/C(C#N)=C/CO[C@@H]2O[C@H](CO)[C@@H](O)[C@H](O)[C@H]2O)ccc1O [Ribetril B, (E)-(E)-2-cyano-4-(beta-D-glucopyranosyloxy)but-2-en-1-yl 3-(4-hydroxy-3-methoxyphenyl)acrylate] | 14 | 6.3 | 5.4 | – |
| N#C/C(=C\CO[C@@H]1O[C@H](CO)[C@@H](O)[C@H](O)[C@H]1O)COC(=O)/C=C/c1ccc(O)cc1 [Ribetril C, (E)-(E)-2-cyano-4-(beta-D-glucopyranosyloxy)but-2-en-1-yl 3-(4-hydroxyphenyl)acrylate] | 59.7 | 15.3 | 17.2 | – |
| COc1cc(C(=O)OC/C(C#N)=C/CO[C@@H]2O[C@H](CO)[C@@H](O)[C@H](O)[C@H]2O)ccc1O [Ribetril D, (E)-2-cyano-4-(beta-D-glucopyranosyloxy)but-2-en-1-yl 4-hydroxy-3-methoxybenzoate] | – | – | – | IC50 (IkappaB kinase β (IKK-β)): 0.037 µM; IC50 [2]: < 0.04 µM; IC50 [1]: 0.23 µM |
| N#C/C(=C\CO[C@@H]1O[C@H](CO)[C@@H](O)[C@H](O)[C@H]1O)COC(=O)c1ccc(O)cc1 [Ribetril E, (E)-2-cyano-4-(beta-D-glucopyranosyloxy)but-2-en-1-yl 4-hydroxybenzoate] | 3.5 | 1.9 | 3.4 | – |
| CC(C)c1c(C(=O)Nc2ccccc2)c(-c2ccccc2)c(-c2ccc(F)cc2)n1CC[C@@H](O)C[C@@H](O)CC(=O)O [atorvastatin] | – | – | – | triglyceride reduction [3]: did not significantly reduce triglycerides |
| CN(C)C(=N)N=C(N)N [metformin] | – | – | – | serum glucose levels relative to vehicle control [4]: significant decrease |
